Test results: patent US7795208B2, “Methods of using deacetylase inhibitors to promote cell differentiation and regeneration” (The Salk Institute for Biological Study, priority 2001, dated 2010)
“And” between values parts separate entries of the source, which are not always exact repeats. Equal values may be shown once.

Columns and labels:
Type in all cases: cell-based, mouse
C2C12 cells = assay: Differentiation and muscle protein expression of C2C12 myoblasts exposed to deacetylase inhibitors (MHC immunofluorescence, Western blot, RT-PCR, FACS)
Method: (§1) Mouse muscle myoblast C2C12 cells (obtained from the American Type Culture Collection, ATCC CRL-1772) and CC42 cells (from Dr. Kenneth Walsh, Tufts University School of Medicine) were cultured in DMEM supplemented with 20% fetal bovine serum, 2 mM glutamine and 1× kanamycin (growth medium, GM). Cellular differentiation was induced with DMEM supplemented with 2% horse serum and 1× insulin, transferring, selenium (Life Technologies). Human skeletal myocytes (CC-2561) were purchased from Clonetics. Stable C2C12 cell lines with integrated reporters are described in Wu, Z., et al., Mol Cell Biol 20:3951-64 (2000). The MCK-luc, 4RE-luc, MEF2 reporter constructs have been described in Puri, P. L., et al., EMBO Journal 16:369-83 (1997a) and Sartorelli, V., et al., Molecular & Cellular Biology 17:1010-26 (1997). The E2F-luc plasmid is described in Helin, K., et al., Genes Dev 7:1850-61 (1993). The MLC-lacZ-nls plasmid is described in Wu, et al. (2000). Dr. Stuart Schreiber (Harvard University) provided the vector expressing Flag-HDAC1, which is described in Taunton, J., et al., Science 272: 408-11 (1996). Transient transfections were performed using FuGENE 6 transfection reagent (Roche Molecular Biochemicals). Following transfections, luciferase activity was determined using the Dual-Luciferase reporter assay system (Promega) on a microtiter luminescence detection system (MLX, Dynex).
For immunoblotting, cell extracts were obtained after incubating the cells in standard lysis buffer. Western blots were probed with the following antibodies: anti-MHC (MF-20), anti-myogenin (FD5), and anti-tubulin (E7), obtained from the Developmental Studies Hybridoma Bank, University of Iowa. Primary antibodies were visualized with the ECL cheminoluminescent kit (Amersham). Cells were fixed and stained with anti-MHC MF-20 antibodies. Nuclei were visualized by 4′,6′-[…]-2-phenylindole (DAPI). FITC-conjugated or Texas red-conjugated secondary antibodies were employed to reveal the primary antibodies.
C2C12 and CC42 cells were exposed to sodium butyrate 5 mM (Sigma), trichostatin A 50 nM (Upstate Biotechnologies), or valproic acid 10 mM (Sigma) for 24 hours in GM (GM regimen). TSA was removed and the cells cultured in DM for 48 hrs before being analyzed. When indicated (DM regimen), the cells were exposed to deacetylase inhibitors when switched from GM to DM and cultured in their presence for 48 hrs.
Another striking effect induced by DI is their ability to increase the number of nuclei present in MHC positive cells. While approximately 15% of the total nuclei are present in elongated, MHC-positive myotubes not exposed to DI, approximately 75-80% of the total nuclei are detected in hypernucleated MHC-positive myotubes when these have been previously exposed to DI (see FIG. 1D and Table 1). In Table 1, C2C12 cells were either exposed to sodium butyrate, TSA, VPA or left untreated for 24 hours in GM. The medium was replaced with DM without DI, and MHC expression was detected by immunofluorescent staining. Nuclei were visualized with DAPI. The values in parenthesis indicate the percentage of nuclei detected in MHC-positive cells. The values are derived from two independent trials.

MLC3F-lacZ-nls construct = assay: β-Galactosidase assay of cells transfected with MLC3F-lacZ-nls; details: transfected cells exposed in GM, then DM 48 hours; vs non-treated cells
Method: FIGS. 4A-C illustrate that embryos exposed to DI display enhanced somitogenesis and increased muscle gene expression. […] Cells were then exposed to TSA (50 nM) in GM and subsequently switched to DM for 48 hours. Cells were stained to detect β-galactosidase activity. FIG. 4B is a picture of E 10.5 embryos derived from MLC1/3F-nLacZ transgenic mice exposed to either TSA or VPA treatment (see Example 1) and stained for 1 hour at 30° C. to detect β-galactosidase activity. […] FIG. 4C is a Western blot of extracts derived from total embryos exposed to either TSA or VPA; MHC is detected.
Cells transfected with MLC-lacZ-nls were washed twice in PBS, fixed in 4% paraformaldeheyde-PBS for 5 min, washed twice in PBS, and stained for 2-5 hrs with 5 mM potassium ferrycyanide, 5 mM potassium ferrocyanide, 2 mM MgCl2, 1 mg/ml X-gal (5-bromo-4-chloro-3-indolyl-β-D-galactoside).

E2F-responsive construct = assay: Luciferase assay of E2F-responsive construct; details: cells exposed to DI in DM
Method: as §1, with “FIGS. 2A-D are graphs showing DI activation muscle-specific transcription in skeletal muscle cells. […] Luciferase activity was measured in non-treated cells cultured in either GM (GM) or DM (DM). […] The reporter activity was also analyzed in cells differentiated in the absence of TSA (DM) Mouse” for “Mouse”, “[…].,” for “Helin, K.,”, “The MLC-lacZ-nls plasmid is described in Wu, et al. (2000). Dr. Stuart Schreiber (Harvard University) provided the vector expressing Flag-HDAC1, which is described in Taunton, J., et al., Science 272: 408-11 (1996). Transient transfections were performed using FuGENE 6 transfection reagent (Roche Molecular Biochemicals).” left out

[1] = C2C12, DI 24 hours in GM, then DM without DI, Tr. 1 and Tr. 2

**Q.** Which “Nuclei/MHC-Positive Cells (number of nuclei)” value (C2C12 cells; [1]) does the source give for `CC(/C=C/C(=O)NO)=C\[C@@H](C)C(=O)c1ccc(N(C)C)cc1` [TSA, trichostatin A] here?
**A.** The value was 200 and 210.

**Q.** And the “percentage of nuclei detected in MHC-positive cells” value (C2C12 cells; [1])?
**A.** The value was 75% and 65%.

**Q.** What about the “endogenous MCK transcripts (RT-PCR)” value (C2C12 cells; undifferentiated myoblasts exposed in GM) of the same molecule?
**A.** The value was “induction of endogenous MCK transcripts”.

**Q.** And the “MHC expression and frequency of MHC-positive multinucleated cells” value (C2C12 cells; undifferentiated myoblasts exposed in GM, differentiated in the absence of DI, vs untreated cells)?
**A.** Its value is “effects undistinguishable from those exerted by sodium butyrate”.

**Q.** And the β-galactosidase-positive nuclei (MLC3F-lacZ-nls construct)?
**A.** The β-galactosidase-positive nuclei was “increased β-galactosidase-positive nuclei”.

**Q.** What about the “transcription driven from an E2F-responsive construct” value (E2F-responsive construct) of the same molecule?
**A.** Its value is “stimulated”.
